In PubChem BioAssay (NCI):
“And” between values parts separate entries of the source, which are not always exact repeats. Equal values may be shown once.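 Protocol summary: plate cells (96-well), add compound at 5 concentrations, incubate 48 h, interpolate endpoints linearly. GI50: concentration for 50% inhibition of growth. TGI: concentration producing complete growth inhibition.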

Tests used:
Assay in all cases: growth of human tumour cells (NCI), 48 h
[1] = tested on: PC-3 prostate
[2] = tested on: MDA-MB-231 breast
[3] = tested on: SF-295 CNS
[4] = tested on: U251 CNS
[5] = tested on: OVCAR-5 ovarian
[6] = tested on: SW-620 colon
[7] = tested on: HT29 colon
[8] = tested on: COLO 205 colon
[9] = tested on: A549 NSCLC
[10] = tested on: SK-MEL-28 melanoma
[11] = tested on: CAKI-1 renal

| Structure (SMILES) | TGI [1] | TGI [2] | TGI [3] | TGI [4] | TGI [5] | TGI [6] | TGI [7] | TGI [8] | TGI [9] | TGI [10] | TGI [11] | GI50 [11] | GI50 [3] | GI50 [4] | GI50 [5] | GI50 [6] | GI50 [7] | GI50 [8] | GI50 [9] | GI50 [10] |
| --- | --- | --- | --- | --- | --- | --- | --- | --- | --- | --- | --- | --- | --- | --- | --- | --- | --- | --- | --- | --- |
| C[C@]12CC/C(=N\O)C=C1CC[C@@H]1[C@@H]2CC[C@]2(C)C(=N/O)/C(=C/c3cccnc3)C[C@@H]12 | > 100 µM | 56.2 µM | 31.7 µM | 94.9 µM | 75.3 µM | > 100 µM | 79.5 µM | 61.8 µM | 59.8 µM | 53.1 µM | – | – | – | – | – | – | – | – | – | – |
| c1ccc(N=c2snc(-c3ccccc3)s2)cc1 | – | – | – | > 100 µM | – | > 100 µM | – | > 100 µM | > 100 µM | > 100 µM | > 100 µM | – | – | – | – | – | – | – | – | – |
| COc1cc([C@@H]2c3cc4c(cc3C[C@H]3COC(=O)[C@@H]32)OCO4)cc(OC)c1OC | – | – | 0.00833 µM | 1.5 µM | > 50 µM | > 50 µM | – | 0.028 µM | > 50 µM | > 50 µM | 1.72 µM | 0.00463 µM | 0.00296 µM | 0.00392 µM | 0.00692 µM | 0.00336 µM | 0.00294 µM and 0.00647 µM | 0.00627 µM and 0.0092 µM | 0.00375 µM | 0.00645 µM |
| O=C(CCc1ccc(O)cc1)c1c(O)cc(O)cc1OC1OC(CO)C(O)C(O)C1O (centres undefined) | > 100 µM | – | > 100 µM | – | > 100 µM | > 100 µM | > 100 µM | > 100 µM | > 100 µM | > 100 µM | > 100 µM | – | – | – | – | – | – | – | – | – |
| COc1ccc(CNc2nc3ccc(C(F)(F)F)cc3nc2-c2ccccc2)cc1OC | – | – | > 100 µM | > 100 µM | > 100 µM | > 100 µM | > 100 µM | > 100 µM | > 100 µM | > 100 µM | – | – | – | – | – | – | – | – | – | – |
| COc1cccc(C2c3cc4c(cc3OC(N3CCCC3)C2C)OCO4)c1OC (centres undefined) | 27.3 µM | – | 12.4 µM | – | 17.9 µM | 18.8 µM | 11.3 µM | 19.4 µM | 25.5 µM | – | 3.15 µM | – | – | – | – | – | – | – | – | – |
| C=CCCCC12CCCc3cccc(c31)NC2=O (centres undefined) | – | – | > 100 µM | 50.3 µM | 43.5 µM | 41.8 µM | – | 40.4 µM | 51.2 µM | – | – | – | – | – | – | – | – | – | – | – |
| O=C1C(Cl)N(c2ccccc2)C1c1c[nH]c2ccccc12 (centres undefined) | – | – | > 100 µM | > 100 µM | > 100 µM | > 100 µM | > 100 µM | > 100 µM | > 100 µM | > 100 µM | – | – | – | – | – | – | – | – | – | – |
| CC(=O)Nc1ccc(Cl)c(Cl)c1 | – | – | > 100 µM | > 100 µM | – | > 100 µM | > 100 µM | > 100 µM | > 100 µM | > 100 µM | – | – | – | – | – | – | – | – | – | – |
| C(=Nc1ccc(-c2nc3ccccc3s2)cc1)c1ccco1 | > 100 µM | – | 59.1 µM | > 100 µM | > 100 µM | > 100 µM | > 100 µM | > 100 µM | > 100 µM | > 100 µM | > 100 µM | – | – | – | – | – | – | – | – | – |
